Measured values published in patent publication US9115093B2, “Substituted bicyclic dihydropyrimidinones and their use as inhibitors of neutrophil elastase activity” (Boehringer Ingelheim International GmbH, priority 2013, dated 2015).

Each molecule was assayed against T1, neutrophil elastase (Homo sapiens, UniProt P08246) (assay: Human Neutrophil Elastase Assay). Settings: substrate MeOSuc-Ala-Ala-Pro-Val-AMC, pH 7.5, room temperature.
T1 sequence (P08246 30-247 limits assumed): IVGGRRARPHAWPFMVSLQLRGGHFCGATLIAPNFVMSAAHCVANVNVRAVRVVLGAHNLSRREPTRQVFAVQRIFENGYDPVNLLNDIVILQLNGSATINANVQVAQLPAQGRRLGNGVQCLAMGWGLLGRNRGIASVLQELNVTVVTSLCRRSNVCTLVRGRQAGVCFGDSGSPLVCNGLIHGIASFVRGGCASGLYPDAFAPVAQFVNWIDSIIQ
Format: biochemical
Design: purchased Calbiochem 324681
Protocol: Human Neutrophil Elastase Assay
Materials: Human neutrophil elastase was purchased from Calbiochem (Cat.No.: 324681) and the elastase substrate MeOSuc-Ala-Ala-Pro-Val-AMC from Bachem (Cat.No.: I-1270). All other materials were of the highest grade commercially available.
The following buffers were used: Compound buffer: 100 mM Tris, 500 mM NaCl, adjusted to pH 7.5; Assay buffer: 100 mM Tris, 500 mM NaCl, adjusted to pH 7.5, containing 0.01% BSA.
Assay conditions: Test compounds were prediluted in DMSO and subsequently in compound buffer (5% DMSO final). 5 μL of these compound dilutions were mixed with 10 μl Neutrophil elastase (9 ng/ml in assay buffer) in a black 384 well OptiPlate (Perkin Elmer, Cat No.: 6007270) and incubated for 15 min at room temperature. Subsequently 10 μL substrate solution in assay buffer were added (250 nM final concentration) and the plates were incubated for 60 min at room temperature. After inactivation of the enzyme, fluorescence intensities were measured at 380 nm excitation and 460 nm emission wavelengths.
Each plate contains wells with a high value control (DMSO+enzyme+substrate) and wells with a low value control (DMSO+inactivated enzyme+substrate). IC50 values were estimated using a sigmoidal concentration response curve with variable slope. Means of low values were taken as 0%, means of high values as 100%.

How did the IC50 turn out when N#Cc1ccc(C2NC(=O)N(c3cccc(C(F)(F)F)c3)C3=C2C(=O)CC(c2ccccc2)C3)cc1 (centres unmarked) [Example 6, 4-(2,5-dioxo-7-phenyl-1-(3-(trifluoromethyl)phenyl)-1,2,3,4,5,6,7,8-octahydroquinazolin-4-yl)benzonitrile] was run?
Its IC50 is 47.6 nM.

CNC(=O)N1C(=O)N(c2cccc(C(F)(F)F)c2)C2=C(C(=O)CCC2)C1c1ccc(C#N)cc1 (centres unmarked) [Example 39.1] was tested. Which IC50 did it give?
Its IC50 is 1.2 nM.

With COCCNC(=O)N1C(=O)N(c2cccc(C(F)(F)F)c2)C2=C(C(=O)CCC2)C1c1ccc(C#N)cc1 (centres unmarked) [Example 39, 4-(4-Cyanophenyl)-N-(2-methoxyethyl)-2,5-dioxo-1-(3-(trifluoromethyl)phenyl)-1,2,5,6,7,8-hexahydroquinazoline-3(4H)-carboxamide] as the molecule, how does the IC50 read?
Its IC50 is 1 nM.

For N#Cc1ccc(C2C3=C(CCCC3=O)N(c3cccc(C(F)(F)F)c3)C(=O)N2CC(=O)N2Cc3ccccc3C2)cc1 (centres unmarked) [Example 36.44], which IC50 is on record?
The IC50 was 9.3 nM.

N#Cc1ccc([C@@H]2C3=C(CCCC3=O)N(c3cccc(C(F)(F)F)c3)C(=O)N2CC(=O)O)cc1 [Example 32A, (R)-2-(4-(4-Cyanophenyl)-2,5-dioxo-1-(3-(trifluoromethyl)phenyl)-1,2,5,6,7,8-hexahydroquinazolin-3(4H)-yl)acetic acid] was tested. Which IC50 did it give?
Its IC50 is 4.6 nM.

N#Cc1ccc(C2C3=C(CCCC3=O)N(c3cccc(C(F)(F)F)c3)C(=O)N2C(=O)NC2CC[S+]([O-])CC2)cc1 (centres unmarked) [Example 71, 4-(4-Cyanophenyl)-2,5-dioxo-N-(1-oxo-hexahydro-1λ^4-thiopyran-4-yl)-1-(3-(trifluoromethyl)phenyl)-1,2,5,6,7,8-hexahydroquinazoline-3(4H)-carboxamide] was tested. Which IC50 did it give?
The IC50 was less than 1 nM.

Which IC50 does the source give for N#Cc1ccc(C2C3=C(CCCC3=O)N(c3cccc(C(F)(F)F)c3)C(=O)N2CCCN2CCCC2)cc1 (centres unmarked) [Example 23, 4-(1-(3-(Trifluoromethyl)phenyl)-2,5-dioxo-3-(3-(pyrrolidin-1-yl)propyl)-1,2,3,4,5,6,7,8-octahydroquinazolin-4-yl)benzonitrile] here?
Its IC50 is 10.7 nM.

Which IC50 does the source give for CN(C(=O)CN1C(=O)N(c2cccc(C(F)(F)F)c2)C2=C(C(=O)CCC2)C1c1ccc(C#N)cc1)C1CCS(=O)(=O)C1 (centres unmarked) [Example 36.69] here?
The IC50 was 3.1 nM.

N#Cc1ccc(C2NC(=O)N(c3cccc(C(F)(F)F)c3)C3=C2C(=O)CC(c2cccs2)C3)cc1 (centres unmarked) [Example 9, 4-(2,5-Dioxo-7-(thiophen-2-yl)-1-(3-(trifluoromethyl)phenyl)-1,2,3,4,5,6,7,8-octahydroquinazolin-4-yl)benzonitrile] was tested. Which IC50 did it give?
Its IC50 is 41.7 nM.

For CNC(=O)N1C(=O)N(c2cccc(C(F)(F)F)c2)C2=C(C(=O)CCC2)C1c1ccc(C#N)cc1S(C)(=O)=O (centres unmarked) [Example 47, 4-(4-Cyano-2-(methylsulfonyl)phenyl)-N-methyl-2,5-dioxo-1-(3-(trifluoromethyl)-phenyl)-1,2,5,6,7,8-hexahydroquinazoline-3(4H)-carboxamide], which IC50 is on record?
The IC50 was less than 1 nM.

N#Cc1ccc(C2C3=C(CCCC3=O)N(c3cccc(C(F)(F)F)c3)C(=O)N2S(=O)(=O)c2ccccc2)cc1 (centres unmarked) [Example 44.5] was tested. Which IC50 did it give?
Its IC50 is 34.9 nM.

How did the IC50 turn out when COC1CCN(C(=O)CN2C(=O)N(c3cccc(C(F)(F)F)c3)C3=C(C(=O)CCC3)C2c2ccc(C#N)cc2)C1 (centres unmarked) [Example 36.23] was run?
Its IC50 is 2.1 nM.

With CN1CCCC1CNC(=O)CN1C(=O)N(c2cccc(C(F)(F)F)c2)C2=C(C(=O)CCC2)C1c1ccc(C#N)cc1 (centres unmarked) [Example 36.39] as the molecule, how does the IC50 read?
Its IC50 is 26.3 nM.

How did the IC50 turn out when N#Cc1ccc(C2C3=C(CCCC3=O)N(c3cccc(C(F)(F)F)c3)C(=O)N2C(=O)NC2CC2)cc1 (centres unmarked) [Example 70.3] was run?
Its IC50 is less than 1 nM.

C[S+]([O-])CCNC(=O)N1C(=O)N(c2cccc(C(F)(F)F)c2)C2=C(C(=O)CCC2)C1c1ccc(C#N)cc1 (centres unmarked) [Example 39.12] was tested. Which IC50 did it give?
Its IC50 is less than 1 nM.

How did the IC50 turn out when N#Cc1ccc(C2NC(=O)N(c3cccc(C(F)F)c3)C3=C2C(=O)CCC3)cc1 (centres unmarked) [Example 17, 4-(1-(3-(Difluoromethyl)phenyl)-2,5-dioxo-1,2,3,4,5,6,7,8-octahydroquinazolin-4-yl)-benzonitrile] was run?
Its IC50 is 23.2 nM.

How did the IC50 turn out when CC1(C)CC(=O)C2=C(C1)N(c1cccc(C(F)(F)F)c1)C(=O)NC2c1ccc(C#N)cc1 (centres unmarked) [Example 3, 4-(7,7-Dimethyl-2,5-dioxo-1-(3-(trifluoromethyl)phenyl)-1,2,3,4,5,6,7,8-octahydroquinazolin-4-yl)benzonitrile] was run?
Its IC50 is 68.3 nM.

CNC(=O)N1C(=O)N(c2ccnc(C(F)(F)F)c2)C2=C(C(=O)CCC2)C1c1ccc(C#N)cc1 (centres unmarked) [Example 76.1] was tested. Which IC50 did it give?
Its IC50 is 4.4 nM.

For COC1CCN(C(=O)N2C(=O)N(c3cccc(C(F)(F)F)c3)C3=C(C(=O)CCC3)C2c2ccc(C#N)cc2)CC1 (centres unmarked) [Example 39.18], which IC50 is on record?
The IC50 was 79.1 nM.

N#Cc1ccc(C2C3=C(CCCC3=O)N(c3cccc(C(F)(F)F)c3)C(=O)N2CC(=O)NCC2CCC(=O)N2)cc1 (centres unmarked) [Example 36.36] was tested. Which IC50 did it give?
The IC50 was 7.9 nM.

With CNC(=O)N1C(=O)N(c2cccc(C(F)(F)F)c2)C2=C(C(=O)CCC2)C1c1ccc(C#N)cc1C (centres unmarked) [Example 73, 4-(4-Cyano-2-methylphenyl)-N-methyl-2,5-dioxo-1-(3-(trifluoromethyl)phenyl)-1,2,5,6,7,8-hexahydroquinazoline-3(4H)-carboxamide] as the molecule, how does the IC50 read?
Its IC50 is less than 1 nM.

For CCCNC(=O)N1C(=O)N(c2cccc(C(F)(F)F)c2)C2=C(C(=O)CCC2)C1c1ccc(C#N)cc1 (centres unmarked) [Example 39.2], which IC50 is on record?
The IC50 was 1 nM.

With N#Cc1ccc(C2C3=C(CCCC3=O)N(c3cccc(C(F)(F)F)c3)C(=O)N2CC(=O)N[C@H]2CCNC2=O)cc1 (some centres unmarked) [Example 36.20] as the molecule, how does the IC50 read?
The IC50 was 11.4 nM.

N#Cc1ccc(C2C3=C(CCCC3=O)N(c3cccc(C(F)(F)F)c3)C(=O)N2CC(=O)N2CCc3cnccc3C2)cc1 (centres unmarked) [Example 36.64] was tested. Which IC50 did it give?
The IC50 was 5.6 nM.

For N#Cc1ccc(C2NC(=O)N(c3cccc(C(F)(F)F)c3)C3=C2C(=O)CC2(CCOCC2)C3)cc1 (centres unmarked) [Example 4, 4-(2′,5′-Dioxo-1′-(3-(trifluoromethyl)phenyl)-2,2′,3,3′,4′,5,5′,6,6′,8′-decahydro-1′H-spiro[pyran-4,7′-quinazoline]-4′-yl)benzonitrile], which IC50 is on record?
The IC50 was 110 nM.

Which IC50 does the source give for COCCN1C(=O)N(c2cccc(C(F)(F)F)c2)C2=C(C(=O)CCC2)C1c1ccc(C#N)cc1 (centres unmarked) [Example 22, 4-(1-(3-(Trifluoromethyl)phenyl)-3-(2-methoxyethyl)-2,5-dioxo-1,2,3,4,5,6,7,8-octahydroquinazolin-4-yl)benzonitrile] here?
Its IC50 is 8.7 nM.

For CS(=O)(=O)c1cc(C#N)ccc1[C@@H]1C2=C(CCCC2=O)N(c2cccc(C(F)(F)F)c2)C(=O)N1CC#N [Example 59, (S)-4-(3-(Cyanomethyl)-2,5-dioxo-1-(3-(trifluoromethyl)phenyl)-1,2,3,4,5,6,7,8-octahydroquinazolin-4-yl)-3-(methylsulfonyl)benzonitrile], which IC50 is on record?
The IC50 was 1.8 nM.

CN1CCC2(CCN(C(=O)CN3C(=O)N(c4cccc(C(F)(F)F)c4)C4=C(C(=O)CCC4)C3c3ccc(C#N)cc3)C2)C1 (centres unmarked) [Example 36.66] was tested. Which IC50 did it give?
The IC50 was 5.8 nM.

CNC(=O)CN1C(=O)N(c2cccc(C(F)(F)F)c2)C2=C(C(=O)CCC2)C1c1ccc(C#N)cc1 (centres unmarked) [Example 36.1] was tested. Which IC50 did it give?
The IC50 was 6.4 nM.

How did the IC50 turn out when CCNC(=O)N1C(=O)N(c2ccnc(C(F)(F)F)c2)C2=C(C(=O)CCC2)C1c1ccc(C#N)cc1 (centres unmarked) [Example 76.2] was run?
Its IC50 is 1.2 nM.

For C[S+]([O-])CCNC(=O)CN1C(=O)N(c2cccc(C(F)(F)F)c2)C2=C(C(=O)CCC2)C1c1ccc(C#N)cc1 (centres unmarked) [Example 36.29], which IC50 is on record?
Its IC50 is 9.5 nM.

Which IC50 does the source give for CC(C)(O)CNC(=O)N1C(=O)N(c2ccnc(C(F)(F)F)c2)C2=C(C(=O)CCC2)C1c1ccc(C#N)cc1 (centres unmarked) [Example 76.4] here?
The IC50 was 5.5 nM.
